# Values joined by “and” are separate entries in the source; they are usually repeats but may differ in a detail not shown here. Equal values may be shown once. Inconclusive results and toxic doses are left out.
# Test system: BDF1 mice, L1210 leukemia sc, survival T/C
# Assay: NCI In Vivo Anticancer Drug Screen. Data for tumor model L1210 Leukemia (subcutaneous) in B6D2F1 (BDF1) mice
# Settings: endpoint: median survival time, higher = longer survival
# In short: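 Antitumor activity is assessed in mice with transplanted tumors by comparing the treated group (T) with the vehicle control group (C).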
structure (smiles),measurement,setting,value
O=NN(CCCl)C(=O)NCCCl,T/C,"dose: 14.0 mg/kg/injection, schedule: Q07DX Z (sc), vehicle: methylcellulose (MC)",173 % of control
same,T/C,"dose: 14.0 mg/kg/injection, schedule: Q07DX Z (sc), vehicle: other",88 % of control
same,T/C,"dose: 14.0 mg/kg/injection, schedule: Q07DX Z (sc), vehicle: saline",200 % of control
same,T/C,"dose: 14.0 mg/kg/injection, schedule: Q16DX002 (ip), vehicle: saline",315 % of control
same,T/C,"dose: 14.0 mg/kg/injection, schedule: Q## X Z (sc), vehicle: methylcellulose (MC)",315 % of control
same,T/C,"dose: 14.0 mg/kg/injection, schedule: Q## X Z (sc), vehicle: saline",315 % of control
same,T/C,"dose: 18.0 mg/kg/injection, schedule: Q01DX001 (ip), vehicle: saline",181 % of control and 200 % of control
same,T/C,"dose: 18.0 mg/kg/injection, schedule: Q01DX001 (sc), vehicle: saline",310 % of control and 352 % of control
same,T/C,"dose: 18.0 mg/kg/injection, schedule: Q07DX003 (sc), vehicle: saline",645 % of control and 660 % of control
same,T/C,"dose: 20.0 mg/kg/injection, schedule: Q01DX001 (sc), vehicle: methylcellulose (MC)",240 % of control
same,T/C,"dose: 20.0 mg/kg/injection, schedule: Q01DX001 (sc), vehicle: saline",270 % of control
same,T/C,"dose: 23.0 mg/kg/injection, schedule: Q01DX001 (ip), vehicle: saline",480 % of control
same,T/C,"dose: 23.0 mg/kg/injection, schedule: Q01DX001 (iv), vehicle: saline",423 % of control
same,T/C,"dose: 23.0 mg/kg/injection, schedule: Q01DX Z (oral), vehicle: saline",157 % of control
same,T/C,"dose: 23.0 mg/kg/injection, schedule: Q01HX002 (ip), vehicle: saline",315 % of control
same,T/C,"dose: 23.0 mg/kg/injection, schedule: Q07DX Z (sc), vehicle: methylcellulose (MC)",184 % of control
same,T/C,"dose: 23.0 mg/kg/injection, schedule: Q07DX Z (sc), vehicle: other",555 % of control
same,T/C,"dose: 23.0 mg/kg/injection, schedule: Q07DX Z (sc), vehicle: saline",438 % of control and 631 % of control and 645 % of control
same,T/C,"dose: 23.0 mg/kg/injection, schedule: Q16DX002 (ip), vehicle: saline",315 % of control
same,T/C,"dose: 23.0 mg/kg/injection, schedule: Q## X Z (sc), vehicle: saline",284 % of control
same,T/C,"dose: 24.0 mg/kg/injection, schedule: Q01DX009 (ip), vehicle: saline",115 % of control
same,T/C,"dose: 30.0 mg/kg/injection, schedule: Q01DX001 (ip), vehicle: saline",218 % of control and 483 % of control
same,T/C,"dose: 30.0 mg/kg/injection, schedule: Q01DX001 (sc), vehicle: saline",410 % of control and 441 % of control
same,T/C,"dose: 30.0 mg/kg/injection, schedule: Q07DX003 (sc), vehicle: saline",295 % of control and 303 % of control
same,T/C,"dose: 39.0 mg/kg/injection, schedule: Q01DX001 (ip), vehicle: saline",309 % of control
same,T/C,"dose: 39.0 mg/kg/injection, schedule: Q07DX Z (sc), vehicle: other",294 % of control
same,T/C,"dose: 39.0 mg/kg/injection, schedule: Q07DX Z (sc), vehicle: saline",173 % of control and 315 % of control
same,T/C,"dose: 40.0 mg/kg/injection, schedule: Q01DX001 (sc), vehicle: methylcellulose (MC)",230 % of control
same,T/C,"dose: 40.0 mg/kg/injection, schedule: Q01DX001 (sc), vehicle: saline",195 % of control
same,T/C,"dose: 48.0 mg/kg/injection, schedule: Q01DX001 (ip), vehicle: saline",292 % of control
same,T/C,"dose: 50.0 mg/kg/injection, schedule: Q01DX001 (ip), vehicle: saline",475 % of control
same,T/C,"dose: 50.0 mg/kg/injection, schedule: Q01DX001 (sc), vehicle: saline",205 % of control
same,T/C,"dose: 60.0 mg/kg/injection, schedule: Q01DX001 (ip), vehicle: saline",124 % of control
same,T/C,"dose: 65.0 mg/kg/injection, schedule: Q01DX001 (oral), vehicle: saline",114 % of control
same,T/C,"dose: 65.0 mg/kg/injection, schedule: Q07DX Z (sc), vehicle: other",205 % of control
same,T/C,"dose: 80.0 mg/kg/injection, schedule: Q01DX001 (sc), vehicle: methylcellulose (MC)",110 % of control
same,T/C,"dose: 80.0 mg/kg/injection, schedule: Q01DX001 (sc), vehicle: saline",110 % of control
same,T/C,"dose: 108.0 mg/kg/injection, schedule: Q01DX001 (oral), vehicle: saline",104 % of control
same,T/C,"dose: 120.0 mg/kg/injection, schedule: Q01DX001 (sc), vehicle: methylcellulose (MC)",100 % of control
same,T/C,"dose: 120.0 mg/kg/injection, schedule: Q01DX001 (sc), vehicle: saline",105 % of control
same,T/C,"dose: 180.0 mg/kg/injection, schedule: Q01DX001 (oral), vehicle: saline",95 % of control
